The assay deals with human hepatic cell line HepG2. The assay can be described thus: Anti-cancer assay: cytotoxicity on HepG2 cells, trypan blue counting. The format is cell-based.

Method: The cells were seeded at a density of 2.5×10^5 cell per ml in a 24 well plate. The cells were allowed to attach for 2 hour before adding the extracts at a concentration of 10 μg/ml. […] The cell viability was determined after 24 hours.
Seed HepG2 at a cell density of 2.5×10^5 cells per ml. […] Incubate in 5% CO2 incubator at 37° C. for 48 hour. Trypsinize cell. Mix with 1 part trypan blue and 4 parts PBS and count the viable cells and the non-viable cells by counting the cells that has taken typan blue (non-viable cells) and the ones that has excluded it (viable cells).

In the case of `O=C1O[C@H]([C@@H](O)CO)C(O)=C1O` [ascorbic acid], the “No. of live cells” value came out at 66.5.

These data come from patent US20100129478A1, “Plant Extracts and Methods and Uses Therefore” (priority 2005, published 2010).
